Measured values published in patent publication US9328112B2, “Tetracyclic CDK9 kinase inhibitors” (AbbVie Inc., priority 2014, dated 2016).

Key:
[1] = target: CDK9/Cyclin T1 (Homo sapiens (Human), UniProt P50750); assay: CDK9 enzyme assay (LANCE ULight TR-FRET kinase assay); type: biochemical; conditions: 1000 μM ATP, 100 nM ULight MBP, kinase reaction 1 hour
Summary of the method: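 Human CDK9/Cyclin T1 phosphorylating 100 nM ULight-MBP with 1000 μM ATP in HEPES/MgCl2 buffer, 1 h reaction. Stopped with 20 mM EDTA plus 0.5 nM Eu anti-phospho-MBP antibody, incubated 1 h, read by TR-FRET (ex 320 nm, em 615/665 nm).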

[2] = system: H929 cells; assay: Cell viability assay (Cell TiterGlo); type: cell-based; conditions: Homo sapiens, NCI-H929, 24 hours at 37° C., Cell TiterGlo luminescence
Method: The cell viability assay was performed using H929 cells. Cells were seeded in 96-well plates at 10,000 cells/well and, after overnight incubation, treated with compounds in a dose response of 3-fold dilutions from 10 μM to 0.005 μM ([…], 0.1% final DMSO concentration). After 24 hours at 37° C., cell viability was measured using Cell TiterGlo reagent (Promega) with a luminescence reader.

CDK9/Cyclin T1, sequence (P50750 whole entry): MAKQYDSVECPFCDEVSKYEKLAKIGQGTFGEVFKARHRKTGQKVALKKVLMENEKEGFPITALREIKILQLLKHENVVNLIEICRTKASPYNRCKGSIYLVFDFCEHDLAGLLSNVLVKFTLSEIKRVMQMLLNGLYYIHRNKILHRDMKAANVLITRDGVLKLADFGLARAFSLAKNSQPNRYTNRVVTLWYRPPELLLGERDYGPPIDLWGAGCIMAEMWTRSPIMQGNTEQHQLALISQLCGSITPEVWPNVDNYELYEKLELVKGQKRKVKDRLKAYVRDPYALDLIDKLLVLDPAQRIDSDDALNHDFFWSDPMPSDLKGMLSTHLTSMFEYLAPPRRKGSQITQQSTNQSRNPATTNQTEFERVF
CDK9/Cyclin T1, sequence (O60563 whole entry partner): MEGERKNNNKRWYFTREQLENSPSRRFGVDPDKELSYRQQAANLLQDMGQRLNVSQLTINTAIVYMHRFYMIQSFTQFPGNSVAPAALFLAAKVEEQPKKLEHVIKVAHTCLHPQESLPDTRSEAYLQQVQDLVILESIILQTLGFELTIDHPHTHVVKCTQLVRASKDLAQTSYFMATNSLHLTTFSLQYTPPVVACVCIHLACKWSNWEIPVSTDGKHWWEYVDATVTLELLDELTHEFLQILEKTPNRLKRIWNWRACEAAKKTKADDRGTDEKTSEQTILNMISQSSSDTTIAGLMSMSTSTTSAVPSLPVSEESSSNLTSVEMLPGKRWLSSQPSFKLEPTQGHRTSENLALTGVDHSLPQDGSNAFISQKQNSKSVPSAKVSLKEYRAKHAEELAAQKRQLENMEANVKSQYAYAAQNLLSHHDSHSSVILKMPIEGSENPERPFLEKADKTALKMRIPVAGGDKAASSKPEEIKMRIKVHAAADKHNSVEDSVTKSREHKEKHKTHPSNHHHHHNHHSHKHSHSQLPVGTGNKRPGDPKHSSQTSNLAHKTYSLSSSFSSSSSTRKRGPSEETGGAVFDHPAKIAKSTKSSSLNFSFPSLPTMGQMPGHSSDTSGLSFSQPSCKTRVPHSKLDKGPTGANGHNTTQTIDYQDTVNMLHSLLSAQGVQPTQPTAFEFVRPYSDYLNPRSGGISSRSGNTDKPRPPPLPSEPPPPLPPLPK

## CN1Cc2c(C3=CCN(CC(=O)N4CC(F)(F)C4)CC3)[nH]c3nccc(c23)-c2cc(F)ccc21 [Example 54, 1-(3,3-difluoroazetidin-1-yl)-2-[4-(10-fluoro-7-methyl-6,7-dihydro-4H-3,4,7-triazadibenzo[cd,f]azulen-5-yl)-3,6-dihydropyridin-1(2H)-yl]ethanone]
[1]
  IC50: 63 nM
[2]
  IC50: 92 nM

## OCC(O)CN1CC=C(c2[nH]c3nccc4c3c2COc2ccc(F)cc2-4)CC1 (stereo not drawn) [Example 164, 3-[4-(10-fluoro-4,6-dihydro-7-oxa-3,4-diazadibenzo[cd,f]azulen-5-yl)-3,6-dihydropyridin-1(2H)-yl]propane-1,2-diol]
[1]
  IC50: 130 nM
[2]
  IC50: 270 nM

## CN1Cc2c(C3=CCNCC3)[nH]c3nccc(c23)-c2cccnc21 [Example 135, 7-methyl-5-(1,2,3,6-tetrahydropyridin-4-yl)-6,7-dihydro-4H-3,4,7,8-tetraazadibenzo[cd,f]azulene]
[1]
  IC50: 63 nM
[2]
  IC50: 76 nM

## CN1Cc2c(C3=CCCN(CC(=O)N4CC(O)C4)CC3)[nH]c3nccc(c23)-c2cc(F)ccc21 [Example 91, 2-[4-(10-fluoro-7-methyl-6,7-dihydro-4H-3,4,7-triazadibenzo[cd,f]azulen-5-yl)-2,3,6,7-tetrahydro-1H-azepin-1-yl]-1-(3-hydroxyazetidin-1-yl)ethanone]
[1]
  IC50: 180 nM
[2]
  IC50: 220 nM

## CN1Cc2c(C3=CCN(CC(=O)N4CC(O)C4)CC3)[nH]c3nccc(c23)-c2cc(F)ccc21 [Example 18, 2-[4-(10-fluoro-7-methyl-6,7-dihydro-4H-3,4,7-triazadibenzo[cd,f]azulen-5-yl)-3,6-dihydropyridin-1(2H)-yl]-1-(3-hydroxyazetidin-1-yl)ethanone]
[1]
  IC50: 44 nM
[2]
  IC50: 160 nM

## CN(C)C(=O)CN1C2C=C(c3[nH]c4nccc5c4c3CN(C)c3ccc(F)cc3-5)CC1CCC2 (stereo not drawn) [Example 101, 2-[3-(10-fluoro-7-methyl-6,7-dihydro-4H-3,4,7-triazadibenzo[cd,f]azulen-5-yl)-9-azabicyclo[3.3.1]non-2-en-9-yl]-N,N-dimethylacetamide]
[1]
  IC50: 110 nM
[2]
  IC50: 91 nM

## CN1Cc2c(C3=CCN([C@H]4CC[C@H](C(=O)O)CC4)CC3)[nH]c3nccc(c23)-c2cc(F)ccc21 [Example 141, trans-4-[4-(10-fluoro-7-methyl-6,7-dihydro-4H-3,4,7-triazadibenzo[cd,f]azulen-5-yl)-3,6-dihydropyridin-1(2H)-yl]cyclohexanecarboxylic acid]
[1]
  IC50: 51 nM
[2]
  IC50: 30 nM

## CC(C)[C@@H](NC1CC=C(c2[nH]c3nccc4c3c2CN(C)c2ccc(F)cc2-4)CC1)C(=O)O (stereo partly drawn) [Example 29, N-[4-(10-fluoro-7-methyl-6,7-dihydro-4H-3,4,7-triazadibenzo[cd,f]azulen-5-yl)cyclohex-3-en-1-yl]-D-valine]
[1]
  IC50: 46 nM
[2]
  IC50: 94 nM

## COC(=O)C[C@H]1CC[C@@H](N2CC=C(c3[nH]c4nccc5c4c3CN(C)c3cc(F)c(F)cc3-5)CC2)CC1 [Example 134, methyl{cis-4-[4-(9,10-difluoro-7-methyl-6,7-dihydro-4H-3,4,7-triazadibenzo[cd,f]azulen-5-yl)-3,6-dihydropyridin-1(2H)-yl]cyclohexyl}acetate]
[1]
  IC50: 47 nM
[2]
  IC50: 310 nM
